In ChEMBL document CHEMBL1201862, “PubChem BioAssay data set” (2004) one finds EC50 and AC50 data, which are given here for 38 compounds.

Activity calls are given as the source filed them.

A word on the EC50: it is the concentration that produces a half-maximal response. The AC50 is the midpoint of the concentration-response curve, whichever way the signal moves.

One data set has as its target T1, Streptokinase A (Streptococcus pyogenes serotype M1, UniProt P10520).
T1 sequence (P10520 whole entry): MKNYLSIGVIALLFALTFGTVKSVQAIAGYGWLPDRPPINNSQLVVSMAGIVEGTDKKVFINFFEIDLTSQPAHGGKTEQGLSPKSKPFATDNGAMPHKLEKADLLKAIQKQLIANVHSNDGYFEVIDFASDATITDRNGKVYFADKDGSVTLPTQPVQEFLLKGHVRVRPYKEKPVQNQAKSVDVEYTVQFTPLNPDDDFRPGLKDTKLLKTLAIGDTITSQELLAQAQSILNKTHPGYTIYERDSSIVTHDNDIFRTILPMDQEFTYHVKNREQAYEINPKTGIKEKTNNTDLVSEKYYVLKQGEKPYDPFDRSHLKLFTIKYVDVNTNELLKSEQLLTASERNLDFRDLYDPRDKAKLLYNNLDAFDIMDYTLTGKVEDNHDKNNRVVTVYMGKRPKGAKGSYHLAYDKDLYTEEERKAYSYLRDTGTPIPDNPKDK
Put plainly: viability-normalized secreted streptokinase activity reduction – plasminogen activation absorbance, OD405, dose response (AID 1914).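 Further: secreted streptokinase activity via plasminogen activation per viability signal from cell pellet.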 Format: functional, Streptococcus pyogenes M1 GAS.

The nature of data set [1]: NIH3T3 cell viability loss – ATP luminescence, mouse fibroblasts, counter-screen, dose response (AID 2010).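 Further: cells exposed to compound for about 90 hours before reading.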 The data set is classed as functional, cell-based. Background: A counterscreen serves to expose hits that act by an unwanted route or on another target.
The nature of data set [2]: Trypanosoma cruzi growth suppression in host cells – NIH3T3 host cells, beta-gal luminescence, confirmation (AID 2044).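 Further: intracellular parasites grown in NIH/3T3 mouse fibroblasts as host cells; luminescent beta-galactosidase reporter signal from transgenic T. cruzi replicating inside host cells; inhibitors lower the luminescence signal.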 Format: functional, cell-based.
Another data set relates to Streptococcus. Description: GAS UMAA2166 growth inhibition – luminescence, BacTiterGlo, counter-screen for streptokinase expression inhibitor project, dose response (AID 1915).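 Further: potency for reduction of bacterial viability or growth.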 The data set is classed as functional, organism-based.
Data set [3] relates to Streptococcus sp. 'group A'. Put plainly: Streptococcus pyogenes SK(-)GAS viability under kanamycin – luminescence, BacTiterGlo, confirmation, counter-screen for streptokinase expression inhibitor project, dose response (AID 1900). Format: functional, organism-based.
In another data set the target is Cytochrome P450 2C19 (Homo sapiens, UniProt P33261). Description: Cytochrome panel assay with activity outcomes. Panel member name: p450-cyp2c19 Compounds with AC50 equal or less than 10 uM are considered active. The data set is classed as functional.
Chain of Cytochrome P450 2C19 (P33261 whole entry): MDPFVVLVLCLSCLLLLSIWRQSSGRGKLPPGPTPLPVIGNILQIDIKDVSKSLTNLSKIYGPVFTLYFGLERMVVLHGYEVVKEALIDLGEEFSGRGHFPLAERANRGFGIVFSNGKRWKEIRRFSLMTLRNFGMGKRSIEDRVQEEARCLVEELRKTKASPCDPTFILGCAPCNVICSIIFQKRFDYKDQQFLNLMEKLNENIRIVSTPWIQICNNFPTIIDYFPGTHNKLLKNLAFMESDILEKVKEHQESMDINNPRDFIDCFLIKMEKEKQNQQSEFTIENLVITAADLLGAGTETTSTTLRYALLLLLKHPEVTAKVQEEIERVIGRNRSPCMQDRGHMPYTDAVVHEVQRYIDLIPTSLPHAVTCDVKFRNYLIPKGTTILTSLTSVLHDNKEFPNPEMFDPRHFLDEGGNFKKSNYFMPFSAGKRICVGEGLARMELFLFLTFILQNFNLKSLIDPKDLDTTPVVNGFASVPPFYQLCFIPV

Turning to `N#Cc1c(NC(=O)CSc2nnc(Cc3ccccc3)[nH]2)oc(-c2ccccc2)c1-c1ccccc1`, the EC50 at Streptokinase A was 4.54 µM (active).
Take `O=C(NC1CCN(Cc2ccccc2)CC1)c1ccccc1`: the EC50 in data set [1] was 10.8 µM (active); in data set [2], 0.721 µM (active).
Take `Cc1sc(NC(=O)c2ccco2)c(CN2CCN(Cc3ccccc3)CC2)c1C`: the results for the EC50 in data set [1] and in data set [2] were > 30 µM (not active) and 3.39 µM (active), respectively.
Consider `O=C(Nc1nc(N2C(=O)c3ccccc3C2=O)n(-c2ccccc2)n1)c1ccc(Cl)cc1`, for which the results for the EC50 (in the data set with Streptococcus; in data set [3]; at Streptokinase A) were 22.9 µM (active), 8.84 µM (active) and > 150 µM (not active), respectively.
`CCOC(=O)c1c(NC(=O)CSc2nnnn2-c2ccccc2)sc2c1CC(C)(C)NC2(C)C`: the values for the concentration giving a half-maximal response (EC50) in data set [1] and in data set [2] were 8.34 µM (active) and 0.831 µM (active), respectively.
Take `CCCCNc1c(-c2ccc(-c3ccc(C(C)=O)cc3)c(OC)c2)nc2cnccn12`: the EC50 with Streptococcus is 21.1 µM (active); in data set [3], 5.22 µM (active); on Streptokinase A, 114 µM (inconclusive).
Take `Cc1onc(-c2ccccc2)c1C(=O)NNC(=S)NC(=O)/C=C/c1cccs1`: the EC50 in the data set with Streptococcus was 2.02 µM (active); in data set [3], 1.02 µM (active).
Regarding `CC(C)C(=O)NC(=S)Nc1ccccc1N1CCN(C(=O)c2ccc(Cl)cc2)CC1`, the EC50 in data set [1] was > 60 µM (not active); in data set [2], 1.47 µM (active).
`Cc1c(C(=O)Nc2ccc(-c3nnc4n3CCCCC4)cc2)oc2ccc(Br)cc12`: the EC50 in data set [1] was > 60 µM (not active); in data set [2] it was 1.18 µM (active).
`Cc1ccc(S(=O)(=O)Cn2nnnc2C(C(C)C)N2CCN(c3nc4ccccc4s3)CC2)cc1` (centres undefined): the EC50 in data set [1] was > 60 µM (inconclusive); in data set [2], 0.532 µM (active).
With `C=CCN1C(=O)NC(=O)/C(=C(/C)Nc2ccc(N(CC)CC)cc2)C1=O`, the EC50 was 14 µM (active) in the data set with Streptococcus, 5.15 µM (active) in data set [3] and > 150 µM (not active) at Streptokinase A.
For `CN(CCc1ccccn1)C1CCCN(S(=O)(=O)c2ccc(F)c(Cl)c2)C1` (centres undefined), the EC50 is > 60 µM (not active) in data set [1] and 1.2 µM (active) in data set [2].
Regarding `COC(=O)c1ccc(-c2nc(CN3CCN(Cc4cccc(C)c4)CC3)c(C)o2)cc1`, the EC50 in data set [1] is > 60 µM (not active); in data set [2] it was 0.164 µM (active).
`CCOc1ccc(C(=O)NC(=S)Nc2ccc(N3CCOCC3)c(Cl)c2)cc1[N+](=O)[O-]`: the EC50 is 21.4 µM (active) in the data set with Streptococcus, 0.724 µM (active) in data set [3] and > 150 µM (not active) at Streptokinase A.
Consider `Cc1cc(=O)oc2cc(O)c(CN(C)CC(=O)O)cc12`, for which the concentration at half-maximal activity (AC50) result at Cytochrome P450 2C19 is given as “inconclusive”.
As for `COc1ccc(CNc2ccc(Cl)cc2)cc1Cn1ccnc1`, the EC50 in data set [1] was > 60 µM (not active); in data set [2], 0.114 µM (active).
For `CN1CCN(CC(O)COC(c2ccccc2)c2ccccc2)CC1` (centres undefined), in that order: > 30 µM (not active) and 1.3 µM (active).
For `COc1ccc(NS(=O)(=O)c2cccc(NC(=O)c3cnccn3)c2)cc1Br`, in that order: > 60 µM (not active) and 1.79 µM (active).
In the case of `CCc1ccc(N(CC(=O)NC2CC2)S(=O)(=O)c2ccc(C)cc2)cc1`, the EC50 (with Streptococcus; in data set [3]; at Streptokinase A) was > 150 µM (not active) each time.
On to `COCC1CCN(Cc2c[nH]nc2-c2cc3ccccc3o2)C1` (centres undefined), for which the EC50 is > 60 µM (not active) in data set [1] and 0.76 µM (active) in data set [2].
As for `O=C(C[n+]1ccc2ccccc2c1)Nc1cc(C(F)(F)F)ccc1Cl`, the EC50 (with Streptococcus; in data set [3]; at Streptokinase A) was > 150 µM (not active) in each case.
As to `CC1CCN(CC(O)COCCC23CC4CC(CC(C4)C2)C3)CC1` (centres undefined), the EC50 in data set [1] was > 60 µM (not active); in data set [2] it was 0.164 µM (active).
As for `COC(=O)[C@@]1(Cc2ccc(F)cc2)[C@H]2c3cc(C(=O)N(C)C)n(CCSCCO)c3C[C@H]2CN1C(=O)c1ccccc1`, the AC50 on Cytochrome P450 2C19 (read-out: AC50) is 39.8 µM (inconclusive).
Take `Cc1nn(Cc2ccc(Cl)cc2Cl)c(Cl)c1/C=N/NC(=O)CNc1cccc(C(F)(F)F)c1`: the EC50 in data set [1] is > 60 µM (inconclusive); in data set [2] it was 2.62 µM (active).
Consider `COc1cc(/C=N/NC(=O)c2nnn(-c3nonc3N)c2C(C)C)ccc1OCc1ccc(F)cc1`, for which the values for the EC50 (in the data set with Streptococcus; in data set [3]; on Streptokinase A) were 47 µM (active), 8.61 µM (active) and 13.4 µM (active), respectively.
Taken in the same sequence, the figures for `CCCCN1C(=O)NC(=O)/C(=C(/CC)Nc2ccc3c(c2)CCC3)C1=O` were > 150 µM (not active), 15.9 µM (active) and 74.1 µM (active).
In the case of `CCn1c(S)nnc1CCNC(=O)c1ccc(Cl)cc1Cl`, on Cytochrome P450 2C19 (read-out: AC50), the AC50 was 10 µM (inconclusive).
For `CC(=O)c1ccc(NC(=O)CN2C(=O)/C(=C/C=C/c3ccccc3)SC2=S)cc1`, the EC50 in the data set with Streptococcus and at Streptokinase A was > 150 µM (not active) in each case.
Take `C/C(CC(=O)Nc1ccccn1)=N\NC(=O)C(=O)Nc1cccc(Cl)c1C`: the AC50 on Cytochrome P450 2C19 (read-out: AC50) is 11.2 µM (inconclusive).
For `CC(Oc1ccccc1)C(=O)NC1C(=O)N2C1SC(C)(C)C2C(=O)O` (centres undefined), the EC50 with Streptococcus is 0.124 µM (active); in data set [3] it was 0.11 µM (active).
For the compound `C/C(=N\NC(=O)Cc1ccc(Cl)cc1)c1ccccc1O`, the EC50 in data set [1] is 10.8 µM (active); in data set [2] it was 2.79 µM (active).
Take `CC(C)Cc1nnc(NC(=O)c2ccc([N+](=O)[O-])cc2)s1`: the AC50 entry on Cytochrome P450 2C19 is “inconclusive”.
Take `C[C@@H](C(=O)NCCc1ccccc1)N1C(=O)N2CCc3c([nH]c4ccccc34)[C@@]2(C)C1=O`: the EC50 was > 60 µM (not active) in data set [1] and 2 µM (active) in data set [2].
As to `CC(C)(C)c1ccc(C(=O)Nc2ccc(F)cc2)s1`, the EC50 (in the data set with Streptococcus; in data set [3]; on Streptokinase A) was > 150 µM (not active) in each case.
`NC(=O)NC(=O)CSc1nc2cc([N+](=O)[O-])ccc2n1-c1cccc(C(F)(F)F)c1`: the EC50 in the data set with Streptococcus was 19.2 µM (active); in data set [3], 0.301 µM (active); on Streptokinase A, > 150 µM (not active).
For `O=C(Nc1ccc2c(c1)N(S(=O)(=O)c1cccs1)CCC2)c1c(F)cccc1Cl`, in that order: > 150 µM (not active), > 150 µM (not active) and > 150 µM (not active).
For the compound `CC(=O)N1c2ccc(S(=O)(=O)N3CCC(C(=O)Nc4cc(C)ccn4)CC3)cc2CC1C` (centres undefined), the 50% effective concentration (EC50) (in the data set on Streptococcus; in data set [3]; on Streptokinase A) was > 150 µM (not active) in each case.
Regarding `Cc1nn2c(O)cc(C(C)(C)C)nc2c1-c1ccccc1`, the EC50 is 6.75 µM (active) in the data set with Streptococcus, 4.17 µM (active) in data set [1], 1.85 µM (active) in data set [2] and 2.71 µM (active) in data set [3].
